The record followed here is patent publication US20220062205A1, “TREATMENT OF GASTROINTESTINAL DISORDERS AND SYMPTOMS THEREOF” (Indiana University Research and Technology Corporation, priority 2018, published 2022).

Common to all, as to format: in vivo, mouse
The test system of assay [1] is Winnie mice. Nature of the assay: Ex vivo whole organ bath colonic motility of colons from treated mice. To be noted: excised whole colons of treated Winnie mice; mean±SEM, n=5. As for the experimental part: The small molecular APE1/Ref-1 antagonist; APX3330, was administered via IP injections in Winnie mice at a dose of 25 mg/kg (30 G needle, max volume 200 μl) dissolved in Cremphore (2%) (Sigma-Aldrich): Ethanol (2%) in sterile water (96%). Mice received alternating IP injections twice a day with 12-hour intervals, over the course of two weeks during predominate intestinal inflammation. Winnie-sham treated mice received vehicle injections excluding APX3330 drugs. All mice were monitored, weighed and faecal pellets were collected over the course of treatment. Colonic motility experiments were completed ex vivo. Whole colons were removed from control C57BL/6, Winnie-sham treated and Winnie-APX3330 treated mice. Colons were positioned horizontally cannulated at the oral and anal end in an organ bath superfused with carbogenated (composition in mM: NaCl 118, KCl 4.6, CaCl2 3.5, MgSO4 1.2, NAH2PO4 1, NaHCO3 25 and d-Glucose; carbongenated with 95% O2 and 5% CO2) ×1 Krebs solution whilst maintained at a temperature of 37° C. The oral cannula was connected to a reservoir with 1× Krebs solution that was adjusted to maintain intraluminal pressure (0 to +2 cm H2O). The anal end was coupled to an out-flow tube with a maximum 2 cm H2O backpressure. A recording was made by a video camera being positioned above the organ bath, this recorded the colonic contractile activity. Tissue were left to equilibrate for 30 minutes prior to 2× 20-minute recordings at increasing intraluminal pressure. Videos were transposed into spatiotemporal maps with Scribble v2.0 software and were analysed by using MATLAB, v2017a software to assess parameters of colonic motility.

Assay [2] relates to Winnie mice. Nature of the assay: Gastrointestinal transit of barium sulfate by X-ray imaging. To be noted: 25 mg/kg IP twice a day. How it is done:
The small molecular APE1/Ref-1 antagonist; APX3330, was administered via IP injections in Winnie mice at a dose of 25 mg/kg (30 G needle, max volume 200 μl) dissolved in Cremphore (2%) (Sigma-Aldrich): Ethanol (2%) in sterile water (96%). Mice received alternating IP injections twice a day with 12-hour intervals, over the course of two weeks during predominate intestinal inflammation. Winnie-sham treated mice received vehicle injections excluding APX3330 drugs. All mice were monitored, weighed and faecal pellets were collected over the course of treatment. GI transit was acquired via a non-invasive radiological method. Briefly, control C57BL/6, Winnie-sham treated and Winnie-APX3330 treated mice received an administration of barium sulfate (2.5 mg/mL; max volume of 200 μl; X-OPAQUE-HD) via oral gavage. Sequential x-rays were attained by HiRay Plus Porta610HF x-ray apparatus (JOC Corp, Kanagawa, Japan; 50 kV, 0.3 mAs, exposure time 60 ms) immediately post Barium sulfate administration (0 min), every 5 minutes for the first hour, 10 minutes for the second hour and then every 20 minutes through to 250 minutes. Fujifilm FCR Capsule XL11 and analysed on eFilm 4.2.0 software developed images. Parameters of GI transit were measured by time (mins) to determine contrast passing through whole GI tract (whole transit time), stomach to caecum (oro-cecal transit time; OCTT), leaving caecum to anus (colonic transit time; CTT) and caecum retention time.

The subject of assay [3] is Winnie mice. The assay is described as follows: RNA sequencing of pooled distal colon. To be noted: n=6, relative to control C57BL/6 mice. How it is done: The small molecular APE1/Ref-1 antagonist; APX3330, was administered via IP injections in Winnie mice at a dose of 25 mg/kg (30 G needle, max volume 200 μl) dissolved in Cremphore (2%) (Sigma-Aldrich): Ethanol (2%) in sterile water (96%). Mice received alternating IP injections twice a day with 12-hour intervals, over the course of two weeks during predominate intestinal inflammation. Winnie-sham treated mice received vehicle injections excluding APX3330 drugs. All mice were monitored, weighed and faecal pellets were collected over the course of treatment. Control C57BL/6, Winnie-sham treated and Winnie-APX3330 fresh colon tissues were collected and snap frozen into liquid nitrogen. Samples were then sent to the Australian Genome Research Facility (AGRF) where next generation sequencing (NGS) was completed. NGS will be carried out by removing 2-3 μg of RNA per sample (≥100 ng/μl). The integrity of the RNA will be assessed by a Bioanalyzer as samples are to have a RNA integrity number (RIN) value of ≥8.0. The RNA samples went through a DNase treatment ready for library preparation. […] Samples underwent quality and adapter trimming, alignment, quantification and normalization. […] Final data obtained from AGRF were analysed and interpreted to determine APE1/Ref-1 associated pathways.

In the case of `CCCCCCCCCC(=CC1=C(C)C(=O)C(OC)=C(OC)C1=O)C(=O)O` [APX3330], in the assay on Winnie mice [1], the “proportional length of colonic migrating motor complexes (CMMCs)” value amounted to 73±1.0%, the “proportional short contraction length (<50% of colon length)” value came to 33.9±3.8% and the “total length of colonic contractions relative to total colon length” value is on record as 62.3±2.4%. Moreover, in the assay on Winnie mice [2] (Winnie mice, mean±SEM), the “retention time in the cecum” value was determined as 86.4 ± 17.8 min and the total transit time is 173.3 ± 24.6 min. Further, the “oro-caecal transit time (OCTT)” value in the assay on Winnie mice [2] (between experimental groups, Winnie mice) is “No changes”. Besides, in the assay on Winnie mice [2] (compared to Winnie-sham treated mice), the “colonic transit time (CTT)” value is listed as “improved”. The “down regulation (fold change) of RNA expression of S100a8, Khdc1a, Lrg1, Retnlb, Nos2, Ido1 and REG3B” value in the assay on Winnie mice [3] is on record as over 2.
